These results are taken from patent US20230181684A1, “NOVEL ANTIBIOTIC COMPOSITIONS AND METHODS OF MAKING OR USING THE SAME” (priority 2020, published 2023).

The MIC is the least concentration at which growth counts as inhibited.

In one data set the test system is Gram-positive strains. Kind of data set: Broth microdilution, Gram-positive strains overall. The class given is cell-based. The note with it: Gram-positive strains B. subtilis ATCC 6051, S. aureus ATCC 25923, E. faecalis ATCC 29212. The protocol: (§1) Assessment of antimicrobial activity of chersinamycin: Chersinamycin was examined for its ability to inhibit bacterial growth by broth microdilution assays against Gram-positive strains B. subtilis ATCC 6051, S. aureus ATCC 25923, and E. faecalis ATCC 29212 and Gram-negative strain E. coli ATCC 25922.
(§2) Minimal inhibitory assays. Antibacterial activity of chersinamycin and positive controls (vancomycin, ampicillin, and ramoplanin A2) were determined by the broth microdilution assay method. Briefly, bacterial strains were grown in cation-adjusted Mueller-Hinton broth. A microtiter plate was prepared by coating wells in 0.2% BSA, and antimicrobial peptides were added with 2-fold dilution steps ranging from 64-0.125 μg mL^−1. Bacteria was added to a final concentration of 10^5 colony forming units and final volume of 100 μL. Plates were incubated at 37° C. for 24 hours, and the MIC was read as the lowest peptide concentration for which no bacterial growth was visualized. Reported values are the average of two replicates.
On the technique in general: In broth dilution the organism is exposed to a series of concentrations in liquid medium.

The conditions of data set [1]: 1% triethylamine in water, room temperature.
Description: Macrolactone selective hydrolysis. […] The solution was allowed to sit at room temperature for one hour, and then analyzed by MALDI-TOF. After determining that the reaction had gone to completion by complete consumption of the starting material, the reaction mixture was dried and reconstituted in a water/acetonitrile mixture for further MS/MS analyses.
The subject of another data set is E. coli ATCC 25922. The protocol:
as §1, §2

The conditions of data set [2]: delivered intravenously; cited from earlier work.
The subject of data set [3] is Gram-positive bacterial infections. The note with it: cited from earlier work.
The conditions of data set [4]: cited from earlier work.
In data set [5] the test system is vancomycin-susceptible and vancomycin-resistant C. difficile strains. The note with it: cited from earlier work.
A further data set concerns B. subtilis ATCC 6051. The settings on record: ATCC 6051, 24 h. The protocol: as §1, §2
The subject of another data set is S. aureus ATCC 25923. The note with it: ATCC 25923, 24 h. The protocol:
as §1, §2

In a further data set the test system is E. faecalis ATCC 29212. The note with it: ATCC 29212, 24 h. The protocol: as §1, §2
For data set [6] the following is noted: administered by intraperitoneal injection; cited from earlier work.
The conditions of data set [7]: Boger alanine scan comparators; cited from earlier work.

In brackets after ≈: the same amount, converted by molar mass. Numbered stars: 1 amine (or outer) side, 2 acyl side, 3 side chain; on linkers, the order of the positions; unused ones are H or OH. Bridge positions count the residues as written; N and C are the ends. Square brackets hold non-standard residues; d marks the D form. Peptide text beside a SMILES is read from it. * marks the point of attachment. Hpg(αMan(1-2)αMan) = N[C@H](C(=O)O)c1ccc(O[C@H]2O[C@H](CO)[C@@H](O)[C@H](O)[C@@H]2O[C@H]2O[C@H](CO)[C@@H](O)[C@H](O)[C@@H]2O)cc1; Octa(2Z,4E)dienoyl(7-Me) = CC(C)C/C=C/C=C\C(=O)*; X1 = NC(=O)[C@@H](O[*:3])[C@H](N[*:1])C(=O)[*:2]; X3 = O=C([C@@H](N[*:1])c1cc(O)cc(O)c1)[*:2]; Hpg(3-Cl) = N[C@H](C(=O)O)c1ccc(O)c(Cl)c1; d(aThr) = C[C@@H](O)[C@@H](N)C(=O)O; dHpg = N[C@@H](C(=O)O)c1ccc(O)cc1; Hpg = N[C@H](C(=O)O)c1ccc(O)cc1; aThr = C[C@H](O)[C@H](N)C(=O)O; dOrn = NCCC[C@@H](N)C(=O)O; X2 = CC(C)CCCCCCC(=O)*

`CC(C)CCCCCCC(=O)N[C@@H](CC(N)=O)C(=O)N[C@@H]1C(=O)N[C@H](c2ccc(O)cc2)C(=O)N[C@H](CCCN)C(=O)N[C@H]([C@@H](C)O)C(=O)N[C@@H](c2ccc(O)cc2)C(=O)N[C@H](c2ccc(O)cc2)C(=O)N[C@@H]([C@H](C)O)C(=O)N[C@@H](Cc2ccccc2)C(=O)N[C@H](CCCN)C(=O)N[C@@H](c2ccc(O[C@H]3O[C@H](CO)[C@@H](O)[C@H](O)[C@@H]3O[C@H]3O[C@H](CO)[C@@H](O)[C@H](O)[C@@H]3O)cc2)C(=O)N[C@H]([C@@H](C)O)C(=O)N[C@@H](c2cc(O)cc(O)c2)C(=O)NCC(=O)N[C@@H](C(C)C)C(=O)N[C@H](C)C(=O)N[C@@H](c2ccc(O)c(Cl)c2)C(=O)O[C@@H]1C(N)=O` [Chersinamycin, chersinamycin] (X2-N[X1][dHpg][dOrn][d(aThr)][Hpg][dHpg][aThr]F[dOrn][Hpg(αMan(1-2)αMan)][d(aThr)][X3]GV[dA][Hpg(3-Cl)]; ester 2-C; N-terminus assumed): the “ability to inhibit bacterial growth, in words” value in the data set with Gram-positive strains is on record as “potent antimicrobial activity”; in the data set with E. coli ATCC 25922 (Gram-negative strain E. coli ATCC 25922), “ineffective”. In addition, in data set [1], the “stability of peptide macrocycle to base” value is “highly base labile”.
As to `CC(C)C/C=C/C=C\C(=O)N[C@@H](CC(N)=O)C(=O)N[C@@H]1C(=O)N[C@H](c2ccc(O)cc2)C(=O)N[C@H](CCCN)C(=O)N[C@H]([C@@H](C)O)C(=O)N[C@@H](c2ccc(O)cc2)C(=O)N[C@H](c2ccc(O)cc2)C(=O)N[C@@H]([C@H](C)O)C(=O)N[C@@H](Cc2ccccc2)C(=O)N[C@H](CCCN)C(=O)N[C@@H](c2ccc(O[C@H]3O[C@H](CO)[C@@H](O)[C@H](O)[C@@H]3O[C@H]3O[C@H](CO)[C@@H](O)[C@H](O)[C@@H]3O)cc2)C(=O)N[C@H]([C@@H](C)O)C(=O)N[C@@H](c2ccc(O)cc2)C(=O)NCC(=O)N[C@@H](CC(C)C)C(=O)N[C@H](C)C(=O)N[C@@H](c2ccc(O)c(Cl)c2)C(=O)O[C@@H]1C(N)=O` [Ramoplanin, ramoplanin A2] ({Octa(2Z,4E)dienoyl(7-Me)}-N[X1][dHpg][dOrn][d(aThr)][Hpg][dHpg][aThr]F[dOrn][Hpg(αMan(1-2)αMan)][d(aThr)][Hpg]GL[dA][Hpg(3-Cl)]; ester 2-C), the hemolysis entry in [2] is “mild to moderately hemolytic”. Moreover, the MICs in vitro in [3] is 0.125 to 2 µg/mL. Further, the oral absorption result in data set [4] (in vivo, po) was “not orally absorbed”. The colonic concentrations in [4] (oral delivery) is above 300 µg/mL. Further, the “MICs in vitro against C. difficile” value in [5] is 0.25 to 0.50 µg/mL. Further, the MIC with B. subtilis ATCC 6051 was below 0.125 mg/L; against S. aureus ATCC 25923, 0.5 mg/L (≈ 0.196 µM); with E. coli ATCC 25922 (ATCC 25922, 24 h), above 64 mg/L; against E. faecalis ATCC 29212 it was 0.5 mg/L (≈ 0.196 µM). In addition, the stability of macrolactone result in data set [6] is “susceptible to hydrolysis”.
As to “[Dap2]-ramoplanin A2 aglycon [[Dap2]-ramoplanin aglycon]”, the MIC in [7] was 0.07 mg/L.
As to ramoplanin A2 aglycon, in [7], the MIC is 0.11 mg/L.
